# Target: T1, hPXR (Homo sapiens, UniProt O75469)
# T1 construct: expressed in transfected cells; provided by Dr. Taosheng Chen, St. Jude
# T1 sequence (O75469 1-434): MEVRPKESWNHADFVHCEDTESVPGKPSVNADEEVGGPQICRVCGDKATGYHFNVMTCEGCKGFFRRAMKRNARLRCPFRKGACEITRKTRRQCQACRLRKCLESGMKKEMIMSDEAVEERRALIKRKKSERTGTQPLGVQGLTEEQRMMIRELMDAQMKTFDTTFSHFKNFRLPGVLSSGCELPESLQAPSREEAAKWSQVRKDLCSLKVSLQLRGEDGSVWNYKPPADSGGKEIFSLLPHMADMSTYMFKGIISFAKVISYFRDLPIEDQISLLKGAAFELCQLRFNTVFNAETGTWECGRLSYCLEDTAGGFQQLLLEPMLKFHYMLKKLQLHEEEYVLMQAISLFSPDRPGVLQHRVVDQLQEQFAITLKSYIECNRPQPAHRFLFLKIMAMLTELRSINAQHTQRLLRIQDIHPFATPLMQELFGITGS
# Assay: PXR luciferase reporter gene assay (qHTS antagonist mode, rifampicin co-treatment) in HepG2-CYP3A4-hPXR cells
# Type: cell-based
# Details: 2 μM rifampicin, used as treatment concentration in HepaRG cells
# Protocol: HepG2 cells stably transfected with a CYP3A4-luc promoter construct and hPXR expression plasmid were provided by Dr. Taosheng Chen (Department of Chemical Biology and Therapeutics, St. Jude Children’s Research Hospital) ([Lin et al., 2008]). Cells were thawed in EMEM (ATCC, Rockville, Maryland), supplemented with 10% Hyclone FBS (GE Healthcare Life Sciences, Logan, Utah) and 100 U/mL of Penicillin and 100 μg/mL of Streptomycin (Invitrogen, Carlsbad, CA) and kept in an incubator at 37°C and 5% CO2. To culture these HepG2-CYP3A4-hPXR cells, 500 μg/mL of Geneticin (GIBCO, Gaithersburg, MD) was added to the thawing media.
# (§1) HepG2-CYP3A4-hPXR cells were dispensed into tissue culture treated 1536-well white assay plates (Greiner Bio-One North America, Monroe, NC) using a Multidrop Combi (Thermo Fisher Scientific Inc., Waltham, Massachusetts) at 2,500 cells/4 µL/well. The cell suspension was prepared using new assay media, which contained phenol red-free DMEM (GIBCO), 5% charcoal/dextran-treated FBS (Invitrogen), 1 mM sodium pyruvate (Invitrogen), 2 mM L-Glutamine (Invitrogen), and 100 U/mL of Penicillin and 100 μg/mL of Streptomycin (Invitrogen). All plates were then incubated for 4 h in a 37°C and 5% CO2 incubator. […] In the primary screen, each compound was tested at 7 concentrations ranging from 46 μM to 1.5 nM. 1 μL of rifampicin, a known PXR agonist, was also co-treated in each well, generating a final concentration of 2 μM, using a Flying Reagent Dispenser (Aurora Discovery, Carlsbad, California). All assay plates were placed in an incubator at 37°C with 5% CO2 for 23 h. Following the incubation period, 1 µL of CellTiter-Fluor reagent (Promega, Madison, Wisconsin) was added to each well and all assay plates were placed back into the incubator set at 37°C and 5% CO2 for 1 h. Fluorescence intensity at 540 nm was measured following excitation at 405 nm using a ViewLux plate reader (Perkin Elmer, Shelton, Connecticut), in order to assess cell viability following treatment. Directly after the fluorescent read, 4 μL of ONE-Glo Luciferase reagent (Promega, Madison, Wisconsin) was added to each well using a Flying Reagent Dispenser, and plates were left to sit at room temperature for 30 min. The luminescence of each plate was then measured using the ViewLux plate reader and data were expressed as relative luminescence units. Gross assay performance was assessed by calculating quality metrics, such as coefficient of variance (CV), signal-to-background ratio (S/B), and Z′ factor, a measure of statistical effect size frequently used to judge whether an assay can be scaled up to a large high-throughput screen ([Zhang et al., 1999]).
# Data analysis was completed using a previously described protocol ([Huang et al., 2016]). […] Normalized percent activity for all test compounds was determined using the following equation: % activity = [(V compound - V DMSO)/(V DMSO–V pos)] × 100, where V compound denotes the compound well values, V pos denotes the median value of the positive control wells, and V DMSO denotes the median value of the DMSO-only wells. Following normalization, data points were corrected using DMSO-only plates included at the beginning and end of the compound plate stack using an in-house pattern correction algorithm in order to remove background patterns, as well as other small abnormalities within the dataset ([Southall et al., 2009]). […] Efficacy is then [a inf - a 0 ]. a=a0+ainf−a0 c^n/k^n+c^n
# Curve class was further converted to curve rank by combining each class with efficacy, such that good quality, efficacious curves are assigned large absolute curve rank values. […] The activity outcome was based on the PXR antagonist readout activity and a cell viability counter screen.
row,IC70 values from the original NPACT screen [µM],SMILES
1,1,CC(C)(C)NC(=O)[C@@H](c1cccnc1)N(C(=O)c1ccco1)c1ccc(C(C)(C)C)cc1 [ML 188]
2,8,Cc1cccc2c1CC[C@H](CN1CCC(c3c(Cl)cccc3Cl)CC1)C[C@@H]2O [SB-612111]
3,15,COC(=O)C[C@H]1C(C)(C)[C@H](OC(=O)c2ccccc2)C2CC3=C4CC(=O)O[C@@H](c5ccoc5)[C@]4(C)CCC3[C@@]1(C)C2=O (stereo partly shown) [NCGC00384964-01]
4,0.5,CC(C)NCCCn1c(Sc2cc3c(cc2I)OCO3)nc2c(N)ncnc21 [PU-H71]
5,3,Cc1ccccc1C#Cc1ccc(CCC(=O)O)cc1 [TUG-424]
6,0.25,CN(C)c1cc2c(cc1Sc1nc3c(N)nccc3n1CCNCC(C)(C)C)OCO2 [CUDC-305]
7,3,CC1CCN(c2cc(NC(=O)c3ccccc3)ncn2)CC1 [ML 340]
8,3,CC(C)C[C@@H](C(=O)N[C@@H](Cc1ccc(OCc2ccccc2)cc1)C(=O)NC(C)(C)C)N(C)Cc1ccc(C(C)(C)C)cc1 [PD 173212]
9,7,C=C1C(=O)O[C@@H]2[C@H]1CC[C@H](C)[C@]1(CCC(=O)O1)C2(C)O (stereo partly shown) [NCGC00380135-02]
10,0.8,CC(C)(O)C1Cc2c(ccc(C(=O)CCc3ccccc3)c2O)O1 (stereo not shown) [NCGC00385629-01]
11,0.6,COC(=O)C1=C(C)NC(COC(N)=O)=C(C(=O)OC(C)C)C1c1cccc(Cl)c1Cl (stereo not shown) [lemildipine]
12,0.5,CC[C@@H](C)Nc1cc(C(=O)N[C@H]2C[C@H]3CC[C@@H](C2)N3c2ccc(C(=O)C3CC3)cn2)c(C)cc1C(N)=O [XL-888]
13,10,c1ccc2c(Oc3nc(Nc4ccc(N5CCOCC5)cc4)c4ncn(C5CCCCC5)c4n3)cccc2c1 [purmorpharmine]
14,10,CCN(CC)C(=O)C(c1ccccc1)N1CCN(c2ccc(NC(=O)c3ccccc3-c3cccnc3)cc2F)CC1 (stereo not shown) [JNJ-31020028]

row,SMILES,IC70 values from the original NPACT screen [µM]
1,CCCCCOc1cc2c(cc1-c1cc(/C=C/C(=O)O)ccc1O)C(C)(C)CCC2(C)C [UVI 3003],0.8

# Target: T1, hPXR
# Assay: Pharmacological inhibition (IC50 shift) assay with varying rifampicin in HepG2-CYP3A4-hPXR cells
# Type: cell-based
# Details: co-treated with 2 µM versus 10 µM rifampicin
# Protocol: as §1
# Each curve was co-treated with 5 μM RIF, 7.5 μM RIF, or 10 μM RIF (a well-known PXR agonist) to determine pharmacological activity. […] Each curve was generated from a combination of all data points together.
row,decrease in potency,SMILES
1,more than 2 fold,"COc1ccc(OC)c(-n2nnc(S(=O)(=O)c3ccc(C(C)(C)C)cc3)c2C)c1 [SPA70, 4-(4-tert-Butylphenylsulfonyl)-1-(2,5-dimethoxyphenyl)-5-methyl-1H-1,2,3-triazole]"

# Tested on: CYP3A4 mRNA expression
# Assay: CYP3A4 mRNA expression by qRT-PCR in HepaRG cells treated with compound alone
# Type: cell-based, human
# Details: 24 h, compound at its IC70 concentration, vs DMSO
# Protocol: Fully differentiated NoSpin™ HepaRG™ cells (Lonza, Walkersville, Maryland) were seeded into 12-well collagen-coated plates (Corning) at a density of 8 × 10^5 cells/well using Williams’ E medium (ThermoFisher) supplemented with HepaRG™ thawing and plating medium supplement (Lonza), 25 U/mL penicillin, and 25 μg/mL streptomycin (Invitrogen). The cells were then placed into a 37°C and 5% CO2 incubator for 3 days including a media change before treatment. Cells were then treated with the vehicle control (final concentration of 0.1% DMSO), the positive controls, or test compounds for 24 h before harvesting.
# Total RNA was extracted from the cell lysate using an RNeasy Mini kit (Qiagen) according to the manufacturer’s instructions. RNA was reverse transcribed to cDNA using a High-Capacity RNA-to-cDNA kit (Applied Biosystems). CYP3A4 and CYP2B6 mRNA expression were both measured and normalized to the glyceraldehyde-3-phosphate dehydrogenase (GAPDH) housekeeping gene. Real-time PCR was completed using a QuantStudio Real-Time PCR system (Applied Biosystems) with TaqMan probes (CYP3A4 Assay ID: Hs00604506_m1, CYP2B6 Assay ID: Hs04183483_g1, GAPDH Assay ID: Hs99999905_m1, ThermoFisher Scientific, Waltham, MA). Following amplification, induction values were calculated using the equation: Fold = 2^−ΔΔCt, where ΔCt represents the difference in number of cycles required to reach the Ct threshold between CYP3A4 or CYP2B6 and GAPDH, and ΔΔCt represents the relative change in these differences between the control (DMSO) and treatment groups. Experimental data are expressed as a mean of triplicate values ±SD. Statistical analysis was performed using one-way analysis of variance with post hoc Dunnett’s analysis. The statistical significance values were set at p < 0.05 (*), p < 0.01 (**), and p < 0.001 (***).
# To overcome the previous screening limitations, we used this more physiologically relevant cell line, HepaRG cells, to run follow-up studies with the PXR antagonists identified from the primary screen which used immortalized cell lines without a metabolic component. Using HepaRG cells, the 20 potential PXR antagonists were treated for 24 h and harvested for mRNA (Supplementary Figure S1).
# FIGURE 3 HepaRG cells were treated with the top 20 most promising PXR antagonists identified from the high-throughput screen. […] The concentrations for the test compounds were the IC70 values from the original NPACT screen. Real-time PCR was used to analyze the mRNA expression of CYP3A4. Each bar represents the mean ± SD in triplicate. *, p < 0.05; **, p < 0.01.
row,SMILES,inhibition of CYP3A4 mRNA expression (in words)
1,CC(C)NCCCn1c(Sc2cc3c(cc2I)OCO3)nc2c(N)ncnc21 [PU-H71],significantly inhibited CYP3A4 mRNA expression
2,CCCCCOc1cc2c(cc1-c1cc(/C=C/C(=O)O)ccc1O)C(C)(C)CCC2(C)C [UVI 3003],generated CYP3A4 inhibition but not to a significant degree
3,CCN(CC)C(=O)C(c1ccccc1)N1CCN(c2ccc(NC(=O)c3ccccc3-c3cccnc3)cc2F)CC1 (stereo not shown) [JNJ-31020028],significantly inhibited CYP3A4 mRNA expression
